# Test results reported in patent EP0114002B1, “Benzothiopyrano(4,3,2,-cd)indazoles, their pharmaceutical compositions and methods for their production” (WARNER-LAMBERT COMPANY, priority 1983, dated 1984).
# Assays:
# L1210 cells = assay: L1210 murine leukemia cell growth inhibition in vitro; assay type: cell-based; conditions: Mus musculus, 72 h, Table 1, three days incubation, 50% inhibition of growth, read-out: L1210 in vitro ID50
# In short: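 Murine L1210 leukemia cells (3 x 10^4 cells/ml) in RPMI 1640 with 5% FBS were exposed to drug dilutions for 3 days at 37 °C and 5% CO2. Cells were then Coulter-counted, growth was expressed relative to solvent and medium controls, and ID50 was given in mol/L.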
# HCT-8 cells = assay: in vitro proliferating human colon adenocarcinoma (HCA) cell screen; assay type: cell-based; conditions: Table 1, 60 to 65 hours with compound, 50% inhibition of growth, read-out: HCA—3 in vitro ID50
# In short: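 HCT-8 cells grown 48 h at 37 °C in RPMI 1640/10% FCS, then exposed to compound for a further 60–65 h. Nuclei counted by Coulter counter after lysis; percent growth per concentration gives ID50 as molar concentration causing 50% growth inhibition.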
# [1] = tested on: lymphocytic leukemia P388; assay: in vivo lymphocytic leukemia P388 test; design: species or system mice; conditions: Mus musculus, P388, ip, 120 h, read-out: P388 in vivo T/C × 100
# In short: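 CD2F mice, 6-7 per group, inoculated IP with P388 leukemia ascitic cells, then dosed IP once daily for five consecutive days at various doses. Survival and weights tracked for 30 days; activity expressed as treated/control survival time ×100, with ≥125 as efficacy criterion. Deaths of all animals within four days flagged as toxic.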
# [2] = tested on: Aerobacter aerogenes 0126; assay: in vitro antibacterial/antifungal (ABF) agar-disk diffusion test; assay type: cell-based; conditions: Klebsiella aerogenes, 0.5 mg/ml, read-out: ABF Zone Diameter (cont. in mg/ml) A. Aero-genes
# Bacillus subtilis 04555 = assay: as above; assay type: cell-based; conditions: 0.5 mg/ml, read-out: ABF Zone Diameter (cont. in mg/ml) B. Sub-tilis
# Escherichia coli 04863 = assay: as above; assay type: cell-based; conditions: 0.5 mg/ml, read-out: ABF Zone Diameter (cont. in mg/ml) E. Coli
# [3] = tested on: Penicillium avellaneum M2988; assay: as above; assay type: cell-based; conditions: Hamigera avellanea, 3 mg/ml, read-out: ABF Zone Diameter (cont. in mg/ml) P. Avell-aneum
# [4] = tested on: Streptococcus faecalis 05045; assay: as above; assay type: cell-based; conditions: Enterococcus faecalis, AM-09 medium, 3 mg/ml, read-out: ABF Zone Diameter (cont. in mg/ml) S. Fae-calis
compound,measurement,setting,value
"OCCNCCNc1ccc2c3c(nn2CCNCCO)-c2ccccc2Sc13 [CH2CH2NHCH2CH2OH / NHCH2CH2NHCH2CH2OH, 2-[[2-[5-[[2-[(2-Hydroxyethyl)amino]ethyl]amino]-2H[1]benzothiopyrano[4,3,2-cd]indazol-2-yl]ethyl]amino]ethanol]",IC50,L1210 cells,400 nM
same,IC50,HCT-8 cells,480 nM
same,response vs control in vivo at 0.75 mg/kg,[1]; Dose 0.75 mg/kg intraperitoneally once daily for five days,146%
same,response vs control in vivo at 0.78 mg/kg,[1]; Dose 0.78 mg/kg intraperitoneally once daily for five days,153%
same,response vs control in vivo at 1.5 mg/kg,[1]; Dose 1.50 mg/kg intraperitoneally once daily for five days,155%
same,response vs control in vivo at 1.56 mg/kg,[1]; Dose 1.56 mg/kg intraperitoneally once daily for five days,180%
same,response vs control in vivo at 3 mg/kg,[1]; Dose 3.00 mg/kg intraperitoneally once daily for five days,187%
same,response vs control in vivo at 3.12 mg/kg,[1]; Dose 3.12 mg/kg intraperitoneally once daily for five days,176%
same,response vs control in vivo at 6 mg/kg,[1]; Dose 6.00 mg/kg intraperitoneally once daily for five days,218%
same,response vs control in vivo at 6.25 mg/kg,[1]; Dose 6.25 mg/kg intraperitoneally once daily for five days,195%
same,response vs control in vivo at 12 mg/kg,[1]; Dose 12.00 mg/kg intraperitoneally once daily for five days,270%
same,response vs control in vivo at 12.5 mg/kg,[1]; Dose 12.50 mg/kg intraperitoneally once daily for five days,271%
same,zone of inhibition at 500 µg/mL,[2],14 mm
same,zone of inhibition at 500 µg/mL,Bacillus subtilis 04555,15 mm
same,zone of inhibition at 500 µg/mL,Escherichia coli 04863,14 mm
same,zone of inhibition at 3000 µg/mL,[3],0 mm
same,zone of inhibition at 3000 µg/mL,[4],0 mm
